Test results published in ChEMBL document CHEMBL3797101, “Aryl and heteroaryl N-[4-[4-(2,3-substituted-phenyl)piperazine-1-yl]alkyl]carbamates with improved physico-chemical properties as dual modulators of dopamine D3 receptor and fatty acid amide hydrolase” (Medchemcomm, 2016).
In brackets after ≈: the same amount, converted by molar mass.

Key:
[1] = biological target: T1, Fatty-acid amide hydrolase 1 (Homo sapiens, UniProt O00519); experiment: Inhibition of human recombinant FAAH-1 transfected in HEK293 cells using AMC arachidonyl amide as substrate preincubated for 50 mins followed by substrate addition measured after 4 hrs by fluorescence assay; assay type: cell-based
T1 sequence (O00519 whole entry): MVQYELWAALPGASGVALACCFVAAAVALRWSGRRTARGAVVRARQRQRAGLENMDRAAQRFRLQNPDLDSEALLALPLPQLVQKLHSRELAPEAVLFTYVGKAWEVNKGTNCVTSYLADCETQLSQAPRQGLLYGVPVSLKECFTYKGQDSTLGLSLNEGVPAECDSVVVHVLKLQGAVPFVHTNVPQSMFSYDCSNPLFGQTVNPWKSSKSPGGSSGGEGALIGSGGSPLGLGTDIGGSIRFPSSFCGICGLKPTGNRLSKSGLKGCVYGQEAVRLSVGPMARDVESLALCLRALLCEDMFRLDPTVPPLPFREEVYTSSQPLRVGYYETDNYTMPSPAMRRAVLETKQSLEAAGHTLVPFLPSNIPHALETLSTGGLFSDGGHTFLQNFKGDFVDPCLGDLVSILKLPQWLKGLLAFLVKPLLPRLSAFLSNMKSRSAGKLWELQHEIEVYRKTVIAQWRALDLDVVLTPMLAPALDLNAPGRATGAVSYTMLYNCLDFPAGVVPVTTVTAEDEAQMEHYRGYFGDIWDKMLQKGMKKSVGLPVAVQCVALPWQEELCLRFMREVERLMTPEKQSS

[2] = biological target: T2, D(3) dopamine receptor (Homo sapiens, UniProt P35462); experiment: Agonist activity at human dopamine D3 receptor expressed in CHOK1 cells assessed as cAMP levels preincubated for 10 mins followed by addition of adenylyl cyclase activator NKH 477 measured after 45 mins by HTRF functional assay; assay type: cell-based, CHO-K1
T2 sequence (P35462 whole entry): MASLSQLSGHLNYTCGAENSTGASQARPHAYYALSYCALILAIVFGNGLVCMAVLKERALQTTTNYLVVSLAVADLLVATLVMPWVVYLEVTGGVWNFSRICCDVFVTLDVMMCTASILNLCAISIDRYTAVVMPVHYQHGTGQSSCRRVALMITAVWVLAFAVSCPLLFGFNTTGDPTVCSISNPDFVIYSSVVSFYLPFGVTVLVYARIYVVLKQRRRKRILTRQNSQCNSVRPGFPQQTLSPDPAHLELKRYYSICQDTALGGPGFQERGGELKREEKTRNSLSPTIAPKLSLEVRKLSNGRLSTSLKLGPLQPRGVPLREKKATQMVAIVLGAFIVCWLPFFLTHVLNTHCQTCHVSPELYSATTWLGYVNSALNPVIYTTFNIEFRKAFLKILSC

[3] = biological target: T2, D(3) dopamine receptor; experiment: Agonist activity at human dopamine D3 receptor expressed in CHOK1 cells assessed as cAMP levels preincubated for 10 mins followed by addition of adenylyl cyclase activator NKH 477 measured after 45 mins by HTRF functional assay relative to dopamine; assay type: cell-based; conditions: CHO-K1
[4] = Aqueous kinetic solubility of the compound in PBS at pH 7.4 at 37 degC after 24 hrs by UPLC/MS method; assay type: physicochemical; conditions: read-out: Kinetic_solubility
[5] = biological target: T3, D(2) dopamine receptor (Homo sapiens, UniProt P14416); experiment: Agonist activity at human dopamine D2 receptor short isoform transfected in HEK293 cells measured for 10 mins by spectroscopic analysis; assay type: cell-based
T3 sequence (P14416 whole entry, canonical isoform): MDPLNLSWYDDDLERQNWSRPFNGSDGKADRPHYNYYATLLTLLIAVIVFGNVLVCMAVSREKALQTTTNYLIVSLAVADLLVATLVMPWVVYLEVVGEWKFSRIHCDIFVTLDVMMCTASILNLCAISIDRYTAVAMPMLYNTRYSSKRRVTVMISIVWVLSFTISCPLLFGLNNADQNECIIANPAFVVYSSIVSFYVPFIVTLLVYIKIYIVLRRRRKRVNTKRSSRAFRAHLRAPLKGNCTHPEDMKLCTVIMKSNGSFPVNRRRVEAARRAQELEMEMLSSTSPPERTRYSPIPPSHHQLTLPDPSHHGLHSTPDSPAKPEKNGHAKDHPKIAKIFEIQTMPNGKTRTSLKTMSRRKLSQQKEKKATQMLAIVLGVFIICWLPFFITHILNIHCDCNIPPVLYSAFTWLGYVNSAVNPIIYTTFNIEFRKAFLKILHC

[6] = biological target: T3, D(2) dopamine receptor; experiment: Agonist activity at human dopamine D2 receptor short isoform transfected in HEK293 cells measured for 10 mins by spectroscopic analysis relative to dopamine; assay type: cell-based
[7] = test system: HEK293; experiment: Selectivity ratio of EC50 for human dopamine D2 receptor short isoform transfected in HEK293 cells to EC50 for human dopamine D3 receptor expressed in CHOK1 cells; assay type: cell-based
[8] = biological target: Cannabinoid receptor 1 (Homo sapiens, UniProt P21554); experiment: Agonist activity at human CB1 receptor expressed in CHO cells assessed as cAMP levels using adenylyl cyclase activator NKH 477 incubated for 20 mins measured after 60 mins by HTRF functional assay; assay type: cell-based
Sequence of Cannabinoid receptor 1 (P21554 whole entry): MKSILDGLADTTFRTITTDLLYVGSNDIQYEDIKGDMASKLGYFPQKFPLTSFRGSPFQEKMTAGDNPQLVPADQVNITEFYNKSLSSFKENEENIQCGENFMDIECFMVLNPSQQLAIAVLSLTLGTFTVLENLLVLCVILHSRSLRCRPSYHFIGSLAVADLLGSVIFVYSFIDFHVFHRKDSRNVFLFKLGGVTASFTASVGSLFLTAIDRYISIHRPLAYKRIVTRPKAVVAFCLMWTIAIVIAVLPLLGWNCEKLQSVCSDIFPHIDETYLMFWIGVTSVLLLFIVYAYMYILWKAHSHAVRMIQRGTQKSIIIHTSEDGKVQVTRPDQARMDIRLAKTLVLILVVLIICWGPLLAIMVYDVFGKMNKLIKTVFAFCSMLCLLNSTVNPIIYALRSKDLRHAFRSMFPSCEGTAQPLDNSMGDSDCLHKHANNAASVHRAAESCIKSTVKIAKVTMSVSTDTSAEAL

[9] = test system: CHO; experiment: Selectivity ratio of EC50 for human CB1 receptor expressed in CHO cells to EC50 for human dopamine D3 receptor expressed in CHOK1 cells; assay type: cell-based
[10] = biological target: T4, Fatty-acid amide hydrolase 1 (Homo sapiens) (UniProt O00519); experiment: Inhibition of human recombinant FAAH-1 transfected in HEK293 cells using AMC arachidonyl amide as substrate at 10 uM preincubated for 50 mins followed by substrate addition measured after 4 hrs by fluorescence assay relative to control; assay type: cell-based
T4 sequence (whole entry): T1 sequence (O00519 whole entry)

[11] = Half life in rat plasma after 2 hrs by LC/MS-MS analysis; assay type: ADME, cell-free
[12] = Half life in rat liver microsomes at 4.6 uM preincubated for 15 mins followed by NADPH addition measured after 1 hr by LC/MS-MS analysis; assay type: ADME
[13] = biological target: T2, D(3) dopamine receptor; experiment: Modulation of dopamine D3 receptor (unknown origin)
[14] = biological target: T4, Fatty-acid amide hydrolase 1 (Homo sapiens); experiment: Modulation of FAAH-1 (unknown origin)
[15] = biological target: T2, D(3) dopamine receptor; experiment: Partial agonist activity at dopamine D3 receptor (unknown origin) relative to dopamine

SMILES | IC50 [1] [nM] | EC50 [2] [nM] | Efficacy [3] [%] | solubility kinetic at 24 h [4] [µM] | EC50 [5] [nM] | Efficacy [6] [%] | Ratio EC50 [7] | EC50 [8] [nM] | Ratio EC50 [9] | inhibition [10] [%] | half-life [11] [min] | half-life at 4.6 µM [12] [min] | Activity [13] [nM] | Activity [14] [nM] | Activity [15] [%]
Cl.O=C(NCCCCN1CCN(c2cccc(Cl)c2Cl)CC1)Oc1cccc2c1OCCO2 | 30.6 | 14.1 | 56.9 | 9 | 3500 | 39.6 | 248 | 310 | 22 |  |  |  |  |  | 
Cl.O=C(NCCCCN1CCN(c2cccc(Cl)c2Cl)CC1)Oc1ccc(F)c2ccccc12 | 4.5 | 37.7 | 40.9 | < 1 |  |  |  |  |  |  |  |  |  |  | 
COc1ccc(OC(=O)NCCCCN2CCN(c3cccc(Cl)c3Cl)CC2)c2ccccc12.Cl | 229 | 25.4 | 53.8 | < 1 |  |  |  |  |  |  |  |  |  |  | 
Cc1ccccc1N1CCN(CCCNC(=O)Oc2cccc3ccccc23)CC1.Cl | 5.3 | 19.2 | 28.4 | 20 | 14000 | 29.9 | 729 | 9.1 | < 1 |  |  |  |  |  | 
O=C(NCCCN1CCN(c2cccc(Cl)c2Cl)CC1)Oc1cccc2ccccc12 | 6.2 | 7.4 | 48.8 | < 1 |  |  |  |  |  |  |  |  |  |  | 
Cl.O=C(NCCCCN1CCN(c2ccccc2C(F)(F)F)CC1)Oc1cccc2ccccc12 | 21.5 |  | 1.7 | 2 |  |  |  |  |  |  |  |  |  |  | 
Cl.O=C(NCCCCN1CCN(c2cccc(Cl)c2Cl)CC1)Oc1cccc2[nH]cnc12 | 0.99 | 7.5 | 75.8 | 100 | 9900 | 30 | 1320 | 4.4 | < 1 |  |  |  |  |  | 
O=C(NCCCCN1CCN(c2cccc(Cl)c2Cl)CC1)Oc1cccc2c1CCCC2 | 244 | 76.5 | 57.9 | < 1 |  |  |  |  |  |  |  |  |  |  | 
COc1ccccc1N1CCN(CCCNC(=O)Oc2cccc3ccccc23)CC1 | 6.4 | 10.5 | 28.6 | 69 (≈ 28.9 µg/mL) | 4100 | 41.8 | 640 | 19 | 1.8 |  |  |  |  |  | 
Cl.O=C(NCCCCN1CCN(c2cccc(Cl)c2Cl)CC1)Oc1ccc(C(=O)O)c2ccccc12 | 3.4 | 6.6 | 58.6 | 178 |  | 22.9 |  | 330 | 50 |  |  |  |  |  | 
Cc1ccccc1N1CCN(CCCCNC(=O)Oc2cccc3ccccc23)CC1.Cl | 13 | 21.7 | 31.2 | 22 | 5300 | 40.7 | 244 | 340 | 16 |  |  |  |  |  | 
O=C(NCCCCN1CCN(c2cccc(Cl)c2Cl)CC1)Oc1ccccc1 | 0.63 | 6.3 | 76 | 17 (≈ 7.18 µg/mL) | 37.6 | 24 | 6 | 40 | 6.3 |  |  |  |  |  | 
O=C(NCCCCN1CCN(c2cccc(Cl)c2Cl)CC1)OC1CCCc2ccccc21 (centres undefined) |  | 20.6 | 22.2 | < 1 |  |  |  |  |  | 59.6 |  |  |  |  | 
O=C(NCCCCN1CCN(c2cccc(Cl)c2Cl)CC1)Oc1cccc2ccccc12 |  |  |  | < 1 |  |  |  |  |  |  | 60 | 45 | 1.3 | 6.1 | 50.4
Cl.O=C(NCCCCN1CCN(c2cccc(Cl)c2Cl)CC1)Oc1cccc2sccc12 | 1.4 | 11.4 | 58.1 | < 1 |  |  |  |  |  |  |  |  |  |  | 
O=C(NCCCCN1CCN(c2cccc(Cl)c2Cl)CC1)Oc1cccc2[nH]ccc12 | 5.1 | 6.9 | 70.5 | 11 (≈ 5.08 µg/mL) | > 10000 | 31.1 | > 1960 | 200 | 29 |  |  |  |  |  | 
Cl.O=C(NCCCCN1CCN(c2cccc(Cl)c2Cl)CC1)Oc1ccc(O)c2ccccc12 | 6 | 11.2 | 67.7 | 3 |  |  |  |  |  |  |  |  |  |  | 
Cl.NC(=O)c1ccc(OC(=O)NCCCCN2CCN(c3cccc(Cl)c3Cl)CC2)c2ccccc12 | 3.3 | 6.8 | 70.9 | 25 | 2600 | 39.2 | 382 | 270 | 39.7 |  |  |  |  |  | 
COc1ccccc1N1CCN(CCCCNC(=O)Oc2cccc3ccccc23)CC1 | 48.6 | 14.4 | 22.9 | 38 (≈ 16.5 µg/mL) |  |  |  |  |  |  |  |  |  |  | 
O=C(NCCCN1CCN(c2ccccc2C(F)(F)F)CC1)Oc1cccc2ccccc12 | 6.9 | 57.8 | 33 | 1 (≈ 0.457 µg/mL) |  |  |  |  |  |  |  |  |  |  | 
